Legend:
Assay type in all cases: in vivo, mice (C57BL/6)
[1] = Body weight of mice in STZ-induced insulin-resistant diabetes model
Description: (§1) STZ (Sigma-aldrich, S0130, 40 mg/kg b.w., in 0.1 M citrate buffer pH 4.5) was intraperitoneally administered to 9-week-old male mice (C57BL/6) once/1 day for 5 days to perform a first disease induction. After 7 weeks of the first induction, a second induction was performed using the same method as the first induction. For 5 days of an STZ administration period for the first induction, 10% sucrose was administered as drinking water. In addition, after 14 days of the second administration, blood sugar was confirmed to confirm the induction rate, and the induced animals were separated into groups. Experimental substances (R)-4-{(R)-1-[7-(3,4,5-trimethoxy-phenyl)-[1,6] naphthyridine-5-yloxy]-ethyl}pyrrolidine-2-one (BI-1002494) and cromolyn (OC-101) were administered orally into the stomach at 10 mL/kg using an oral administration syringe (sonde) before 16:00 daily for 12 weeks at a frequency of 7 days/week at doses shown in Table 1 below, respectively, and dexamethasone was orally administered as a positive control substance.

[2] = Drinking water intake of mice in STZ-induced insulin-resistant diabetes model; set-up: unit not given here
Description: as §1

[3] = system: animal model of insulin-resistant diabetes; test: Blood sugar, tail vein blood, blood sugar meter, 4 h fasting; set-up: blood sugar, Mean: unit not given here
Description: as §1
Before disease induction, excluding week 9 of administration of experimental substances to mice in each group of Example 1 above, after 2 weeks after the first induction (based on a first administration date), and after 6 weeks and 2 weeks of the second induction (based on the first administration date), blood was collected from the tail vein and blood sugar was measured using a blood sugar meter (Accu-Check, Roche), and fasting was performed for 4 hours from 9:30 a.m. to 1:30 p.m.

[4] = system: animal model of insulin-resistant diabetes; test: Blood biochemistry, automated analyzer, at end of observation
Description: as §1
(§2) After the observation period for mice of each group in Example 1 was terminated, all surviving animals were fasted in the same manner as when measuring blood sugar, and then anesthetized by inhaling isoflurane, and blood was collected from the abdominal vena cava through laparotomy. After the blood collection was completed, the veins and arteries were cut under anesthesia and exsanguinated. The collected blood was left at room temperature for 30 minutes or more and then centrifuged at 3,000 rpm for 20 minutes. Thereafter, glucose, blood urea nitrogen (BUN), and creatinine were analyzed using an automated blood biochemistry analyzer (Hitachi 3100, Hitachi Co. Ltd., Japan). Indoxyl sulfate (a substance that was mainly produced in the intestines to cause kidney damage, and a substance that caused end-stage renal failure by advancing kidney function damage in patients with renal failure during hemodialysis) was analyzed using LC MS/MS. In addition, blood insulin was analyzed according to a method represented by a commercial Mouse Insulin ELISA KIT (#AKRIN-011T, Sibayagi Co. Ltd., Japan).

[5] = system: animal model of insulin-resistant diabetes; test: Histopathological change of liver, kidney and pancreas (H&E); settings: count in group of 10 animals
Description: as §1
At the end of the observation period, the mice in each group of Example 1 were confirmed to be dead, and the liver, kidney, and pancreas were extracted and fixed with 10% neutral buffered formalin (NBF) in at least 20 times the tissue volume. The fixed tissue was sectioned to a thickness of approximately 4 mm and then produced into a paraffin block through general tissue processing and embedding processes. Thereafter, the tissue was sectioned to a thickness of 4 μm using a rotary microtome, and then H&E staining was performed, and histopathological changes were observed.

[6] = Feed intake of mice in STZ-induced insulin-resistant diabetes model; set-up: feed intake: unit not given here; settings: 50 mg/kg/day oral
Description: as §1

[7] = system: animal model of insulin-resistant diabetes; test: Blood insulin (Mouse Insulin ELISA) and HOMA-IR; settings: 50 mg/kg
Description: as §1, §2

[8] = system: animal model of insulin-resistant diabetes; test: Blood indoxyl sulfate by LC MS/MS; settings: 50 mg/kg/day oral, 12 weeks
Description: as §1, §2

[9] = 50 mg/kg/day oral, 12 weeks, blood

## C[C@@H]1C[C@H]2[C@@H]3CCC4=CC(=O)C=C[C@]4(C)[C@@]3(F)[C@@H](O)C[C@]2(C)[C@@]1(O)C(=O)CO [Dexamethasone, reference compound]
[1]; 2 mg/kg/day oral, week 0
  body weight, Mean: 24 g
[1]; 2 mg/kg/day oral, week 1
  body weight, Mean: 23.5 g
[1]; 2 mg/kg/day oral, week 2
  body weight, Mean: 23.6 g
[1]; 2 mg/kg/day oral, week 3
  body weight, Mean: 23.6 g
[1]; 2 mg/kg/day oral, week 4
  body weight, Mean: 23.6 g
[1]; 2 mg/kg/day oral, week 5
  body weight, Mean: 23.7 g
[1]; 2 mg/kg/day oral, week 6
  body weight, Mean: 23.6 g
[1]; 2 mg/kg/day oral, week 7
  body weight, Mean: 23.8 g
[1]; 2 mg/kg/day oral, week 9
  body weight, Mean: 23.3 g
[2]; 2 mg/kg/day oral, week 0
  drinking water intake, Mean: 7.07
[2]; 2 mg/kg/day oral, week 1
  drinking water intake, Mean: 7.73
[2]; 2 mg/kg/day oral, week 2
  drinking water intake, Mean: 7.05
[2]; 2 mg/kg/day oral, week 3
  drinking water intake, Mean: 7.89
[2]; 2 mg/kg/day oral, week 4
  drinking water intake, Mean: 7.69
[2]; 2 mg/kg/day oral, week 5
  drinking water intake, Mean: 7.10
[2]; 2 mg/kg/day oral, week 6
  drinking water intake, Mean: 7.35
[2]; 2 mg/kg/day oral, week 7
  drinking water intake, Mean: 7.18
[2]; 2 mg/kg/day oral, week 8
  drinking water intake, Mean: 7.83
[2]; 2 mg/kg/day oral, week 9
  drinking water intake, Mean: 7.45
[2]; 2 mg/kg/day oral, week 10
  drinking water intake, Mean: 7.19
[3]; 2 mg/kg/day oral, value column 2 of 6, head prints only weeks 0, 4, 8, 10
  blood sugar, Mean: 309.1
[3]; 2 mg/kg/day oral, value column 3 of 6, head prints only weeks 0, 4, 8, 10
  blood sugar, Mean: 329.2
[3]; 2 mg/kg/day oral, value column 4 of 6, head prints only weeks 0, 4, 8, 10
  blood sugar, Mean: 336.9
[3]; 2 mg/kg/day oral, value column 6 of 6, head prints only weeks 0, 4, 8, 10
  blood sugar, Mean: 331.4
[3]; 2 mg/kg/day oral, week 0
  blood sugar, Mean: 307.1
[4]; 2 mg/kg/day oral, 12 weeks, blood
  T-CHO, Mean: 139.0 dL⁻¹
[5]; 2 mg/kg (G3)
  Kidney Medullar apoptosis: 1
  Kidney Medullar mineralization: 2
  Kidney NHL: 6
  Kidney bowman's capsule hyperplasia: 2
  Kidney pappillary mineralization: 0
  Liver Apoptosis: 4
  Liver Cytoplasmic glycogen: 0
  Liver Eosinophlic focus of cellular alteration: 3
  Liver Mononuclear cell infiltrate: 0
  Liver NHL: 5
  Pancrease Apoptosis: 0
  Pancrease NHL: 8
  Pancrease islet degeneration: 1
  Pancrease islet hypertrophy: 0
  Pancrease islet, mononuclear cell infillitrate: 1

## O=C(O)c1cc(=O)c2c(OCC(O)COc3cccc4oc(C(=O)O)cc(=O)c34)cccc2o1 [OC-101, cromolyn, reference compound]
[1]; 50 mg/kg/day oral, week 0
  body weight, Mean: 23.9 g
[1]; 50 mg/kg/day oral, week 1
  body weight, Mean: 23.4 g
[1]; 50 mg/kg/day oral, week 2
  body weight, Mean: 23.5 g
[1]; 50 mg/kg/day oral, week 3
  body weight, Mean: 23.3 g
[1]; 50 mg/kg/day oral, week 4
  body weight, Mean: 23.5 g
[1]; 50 mg/kg/day oral, week 5
  body weight, Mean: 23.4 g
[1]; 50 mg/kg/day oral, week 6
  body weight, Mean: 23.5 g
[1]; 50 mg/kg/day oral, week 7
  body weight, Mean: 23.4 g
[1]; 50 mg/kg/day oral, week 8
  body weight, Mean: 23.2 g
[1]; 50 mg/kg/day oral, week 9
  body weight, Mean: 23 g
[6]; week 3
  feed intake: 5.47
[6]; week 4
  feed intake: 4.26
[6]; week 6
  feed intake: 4.29
[6]; week 9
  feed intake: 4.51
[2]; 50 mg/kg/day oral, week 0
  drinking water intake, Mean: 6.78
[2]; 50 mg/kg/day oral, week 1
  drinking water intake, Mean: 6.11
[2]; 50 mg/kg/day oral, week 2
  drinking water intake, Mean: 7.68
[2]; 50 mg/kg/day oral, week 3
  drinking water intake, Mean: 6.99
[2]; 50 mg/kg/day oral, week 4
  drinking water intake, Mean: 7.23
[2]; 50 mg/kg/day oral, week 5
  drinking water intake, Mean: 6.76
[2]; 50 mg/kg/day oral, week 6
  drinking water intake, Mean: 7.60
[2]; 50 mg/kg/day oral, week 7
  drinking water intake, Mean: 7.06
[2]; 50 mg/kg/day oral, week 8
  drinking water intake, Mean: 7.17
[2]; 50 mg/kg/day oral, week 9
  drinking water intake, Mean: 7.09
[2]; 50 mg/kg/day oral, week 10
  drinking water intake, Mean: 6.76
[3]; 50 mg/kg/day oral, value column 2 of 6, head prints only weeks 0, 4, 8, 10
  blood sugar, Mean: 336.8
[3]; 50 mg/kg/day oral, week 0
  blood sugar, Mean: 200.9
[4]; 50 mg/kg
  GLU compared to the disease control group: decreased statistically significantly
[4]; [9]
  ALT, Mean: 31.3 L⁻¹
  AST, Mean: 34.0 L⁻¹
  T-CHO, Mean: 24.2 dL⁻¹
[7]
  HOMA-IR compared with the disease control group: decreased statistically significantly
[8]
  Indoxyl sulfate, Mean: 0.8 µg/mL
[5]; 50 mg/kg (G6, G7)
  Kidney Medullar apoptosis: 0
  Kidney Medullar mineralization: 1
  Kidney NHL: 8
  Kidney bowman's capsule hyperplasia: 1
  Kidney pappillary mineralization: 0
  Liver Apoptosis: 2
  Liver Cytoplasmic glycogen: 0
  Liver Eosinophlic focus of cellular alteration: 1
  Liver Mononuclear cell infiltrate: 3
  Liver NHL: 5
  Pancrease Apoptosis: 0
  Pancrease NHL: 6
  Pancrease islet degeneration: 2
  Pancrease islet hypertrophy: 2
  Pancrease islet, mononuclear cell infillitrate: 1
